Earlier results, collected in patent US20260256788A1, “COMPOSITIONS COMPRISING MELATONIN, 5-FLUOROURACIL AND DIMETHYL SULFOXIDE FOR USE IN THE TREATMENT OF ACTINIC KERATOSIS” (RepoCeuticals A/S, priority 2023, published 2026).

Experiments:
[1] = not given; remark: listed apart in the source

solubility in water	solubility in DMSO ([1]; in DMSO)	solubility of melatonin in DMSO ([1]; in DMSO at room temperature) [mg/mL]	Compound
only sparingly soluble	very soluble	–	O=c1[nH]cc(F)c(=O)[nH]1 [5-FU, 5-fluoro-2,4(1H;3H)-pyrimidinedione]
–	–	≥ 232	COc1ccc2[nH]cc(CCNC(C)=O)c2c1 [melatonin, N-acetyl-5-methoxytryptamine]
